Experimental findings from patent publication US20040121946A9, “Inducing cellular immune responses to her2/neu using peptide and nucleic acid compositions” (priority 2002, published 2004) are described below.

Where a SMILES comes first, the peptide text is derived from it. Where no end group is shown, it is not given here. [ ]: non-standard residue; d: D form. Abu = CC[C@H](N)C(=O)O

One assay concerns the target HLA-A*0301 (Homo sapiens, UniProt P04439). The format is binding. Conditions: Table XXIII, HLA-A3 supermotif-bearing peptides.
The target in a further assay is HLA-A*1101 (Homo sapiens, UniProt P04439, A114D/D185E/E176A/F33Y/L180Q/S129P/T187R). Type of assay: binding. The note with it: Table XXIII, HLA-A3 supermotif-bearing peptides.
Sequence of HLA-A*1101 (P04439 25-365 limits assumed, stated change not applied): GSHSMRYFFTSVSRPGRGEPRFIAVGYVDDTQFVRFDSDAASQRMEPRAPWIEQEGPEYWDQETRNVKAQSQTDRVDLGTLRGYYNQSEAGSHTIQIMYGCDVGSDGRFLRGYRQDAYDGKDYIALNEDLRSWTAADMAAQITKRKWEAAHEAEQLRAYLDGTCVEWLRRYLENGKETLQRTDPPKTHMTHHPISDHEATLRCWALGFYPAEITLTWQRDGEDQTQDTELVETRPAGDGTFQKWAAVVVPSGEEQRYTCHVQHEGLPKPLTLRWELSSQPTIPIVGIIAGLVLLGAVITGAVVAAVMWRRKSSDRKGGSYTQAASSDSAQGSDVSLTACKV
The target of another assay is HLA-A*3101 (Homo sapiens, UniProt P04439, A270S/D185E/E176V/E277Q/F33T/G231S/G80R/H175R/I121M/I218V/I322F/K168Q/L300P/L318F/M331R/P217A/Q94H/R138Q/T323A/T345S/T97I/V358M). The format is binding. The note with it: Table XXIII, HLA-A3 supermotif-bearing peptides.
The target in a further assay is HLA-A*3301 (Homo sapiens, UniProt P04439, A270S/D185E/E176V/E277Q/E87N/F33T/G231S/H175R/I121M/I218V/I322F/K168Q/K210R/L300P/L318F/M331R/P217A/Q86R/Q94H/R138Q/T323A/T345S/T97I/V358M/Y195H). The format is binding. The note with it: Table XXIII, HLA-A3 supermotif-bearing peptides.
The next assay concerns the target HLA-A*6801 (Homo sapiens, UniProt P04439, A269V/D185E/E176V/E277Q/E87N/F33Y/G231S/I121M/I166T/I218V/L180W/L300P/L318F/N151K/P208A/P217A/Q86R/R169H/T345S). Type of assay: binding. Conditions: Table XXIII, HLA-A3 supermotif-bearing peptides.
Assay [1] has as its system A3-supertype alleles (A*0301, A*1101, A*3101, A*3301, A*6801). As to the kind of experiment: A3-supertype cross-reactive binding. Set-up: species or system human. The note with it: of five A3-supertype alleles tested.

One may read the IC50 as the concentration that inhibits the measured activity by half. A higher IC50 goes with lower potency. Take `CC[C@H](C)[C@H](N)C(=O)N[C@@H](CO)C(=O)N[C@@H](Cc1c[nH]c2ccccc12)C(=O)N[C@@H](CC(C)C)C(=O)NCC(=O)N[C@@H](CC(C)C)C(=O)N[C@@H](CCCNC(=N)N)C(=O)N[C@@H](CO)C(=O)N[C@@H](CC(C)C)C(=O)N[C@@H](CCCNC(=N)N)C(=O)O` [Her2/neu.450]: the IC50 against HLA-A*0301 is 268 nM; against HLA-A*1101, 2220 nM; against HLA-A*3101 it was 6.9 nM; on HLA-A*3301, 223 nM; on HLA-A*6801, 73 nM. The “No. of A3 Alleles Crossbound” value in assay [1] stood at 4.
In the case of `CC[C@H](NC(=O)[C@H](CC(N)=O)NC(=O)[C@@H](NC(=O)[C@@H](N)CC)C(C)C)C(=O)N[C@@H](CO)C(=O)N[C@@H](CCC(N)=O)C(=O)N[C@@H](Cc1ccccc1)C(=O)N[C@@H](CC(C)C)C(=O)N[C@@H](CCCCN)C(=O)O` [Her2/neu.528.B1B4K9] (H-[Abu]VN[Abu]SQFLK-OH), the IC50 against HLA-A*0301 turned out to be 34 nM; on HLA-A*1101 it was 22 nM; against HLA-A*3101 it was 60 nM; on HLA-A*3301, 4270 nM; against HLA-A*6801 it was 15 nM. For the same molecule, in assay [1], the “No. of A3 Alleles Crossbound” value is 4.
Regarding `CC(C)C[C@H](NC(=O)[C@H](CCC(N)=O)NC(=O)[C@H](CC(=O)O)NC(=O)[C@H](Cc1c[nH]c2ccccc12)NC(=O)[C@@H]1CCCN1C(=O)[C@@H](NC(=O)[C@@H](NC(=O)[C@@H](N)Cc1c[nH]cn1)C(C)C)C(C)C)C(=O)N[C@@H](Cc1ccccc1)C(=O)N[C@@H](CCCCN)C(=O)O` [Her2/neu.478.V2K10], the IC50 was 180 nM against HLA-A*0301; 375 nM on HLA-A*1101; above 10000 nM against HLA-A*3101; above 10000 nM at HLA-A*3301; 8.9 nM at HLA-A*6801. Further, the “No. of A3 Alleles Crossbound” value in assay [1] is 3.
Regarding LVKSPNHVR [Her2/neu.852.R9], the IC50 against HLA-A*0301 is 7860 nM; on HLA-A*1101 it was above 10000 nM; against HLA-A*3101 it was 198 nM; against HLA-A*3301, 107 nM; on HLA-A*6801, 50 nM. Moreover, the “No. of A3 Alleles Crossbound” value in assay [1] was found to be 3.
As for `CC[C@H](NC(=O)CNC(=O)CNC(=O)[C@H](C)NC(=O)[C@H](CC)NC(=O)[C@@H](NC(=O)[C@@H](N)[C@@H](C)O)C(C)C)C(=O)N[C@@H](C)C(=O)N[C@@H](CCCCN)C(=O)O` [Her2/neu.218.B3B7K9] (H-TV[Abu]AGG[Abu]AK-OH), the IC50 is 24 nM on HLA-A*0301; 29 nM at HLA-A*1101; above 10000 nM against HLA-A*3101; above 10000 nM against HLA-A*3301; 7.3 nM on HLA-A*6801. Moreover, the “No. of A3 Alleles Crossbound” value in assay [1] is recorded as 3.
Regarding `CC(C)C[C@H](NC(=O)[C@H](Cc1ccccc1)NC(=O)[C@H](CCC(N)=O)NC(=O)[C@H](CO)NC(=O)[C@H](CS)NC(=O)[C@H](CC(N)=O)NC(=O)[C@@H](NC(=O)[C@@H](N)CS)C(C)C)C(=O)N[C@@H](CCCNC(=N)N)C(=O)O` [Her2/neu.528], the IC50 at HLA-A*0301 worked out at 7330 nM; on HLA-A*1101 it was 194 nM; at HLA-A*3101 it was 34 nM; against HLA-A*3301, 50 nM; at HLA-A*6801 it was 18 nM. In addition, the “No. of A3 Alleles Crossbound” value in assay [1] is 4.
AVPLDSTFYK [Her2/neU.997.V2K10]: the IC50 against HLA-A*0301 worked out at 550 nM; against HLA-A*1101 it was 33 nM; against HLA-A*3101, 1500 nM; at HLA-A*3301, 22300 nM; against HLA-A*6801 it was 229 nM. Besides, the “No. of A3 Alleles Crossbound” value in assay [1] is reported as 2.
With `CC[C@H](NC(=O)[C@H](CC(N)=O)NC(=O)[C@@H](NC(=O)[C@@H](N)CC)C(C)C)C(=O)N[C@@H](CO)C(=O)N[C@@H](CCC(N)=O)C(=O)N[C@@H](Cc1ccccc1)C(=O)N[C@@H](CC(C)C)C(=O)N[C@@H](CCCNC(=N)N)C(=O)O` [Her2/neu.528.B1B4] (H-[Abu]VN[Abu]SQFLR-OH), the IC50 on HLA-A*0301 came to 177 nM; against HLA-A*1101 it was 80 nM; at HLA-A*3101, 38 nM; at HLA-A*3301, 58 nM; against HLA-A*6801, 10 nM. For the same molecule, the “No. of A3 Alleles Crossbound” value in assay [1] amounted to 5.
For `CC(C)[C@H](NC(=O)[C@@H](N)[C@@H](C)O)C(=O)N[C@@H](CS)C(=O)N[C@@H](C)C(=O)NCC(=O)NCC(=O)N[C@@H](CS)C(=O)N[C@@H](C)C(=O)N[C@@H](CCCNC(=N)N)C(=O)O` [Her2/neu.218], the IC50 against HLA-A*0301 is above 10000 nM; against HLA-A*1101, 261 nM; on HLA-A*3101, 129 nM; at HLA-A*3301, 326 nM; against HLA-A*6801, 83 nM. Besides, the “No. of A3 Alleles Crossbound” value in assay [1] turned out to be 4.
In the case of `CC(C)C[C@H](NC(=O)[C@H](CCC(N)=O)NC(=O)[C@H](CC(=O)O)NC(=O)[C@H](Cc1c[nH]c2ccccc12)NC(=O)[C@@H]1CCCN1C(=O)[C@@H](NC(=O)[C@@H](NC(=O)[C@@H](N)Cc1c[nH]cn1)[C@@H](C)O)C(C)C)C(=O)N[C@@H](Cc1ccccc1)C(=O)N[C@@H](CCCNC(=N)N)C(=O)O` [Her2/neu.478], the IC50 was found to be 3140 nM against HLA-A*0301; 83 nM against HLA-A*1101; 19 nM against HLA-A*3101; 88 nM at HLA-A*3301; 4 nM against HLA-A*6801. For the same molecule, the “No. of A3 Alleles Crossbound” value in assay [1] came to 4.
For `CC(C)C[C@H](NC(=O)[C@@H]1CCCN1C(=O)[C@@H](NC(=O)[C@H](C)N)C(C)C)C(=O)N[C@@H](CC(=O)O)C(=O)N[C@@H](CO)C(=O)N[C@H](C(=O)N[C@@H](Cc1ccccc1)C(=O)N[C@@H](Cc1ccc(O)cc1)C(=O)N[C@@H](CCCNC(=N)N)C(=O)O)[C@@H](C)O` [Her2/neu.997.V2], the IC50 at HLA-A*1101 was 88 nM; on HLA-A*3101, 30000 nM; against HLA-A*3301 it was 2640 nM; on HLA-A*6801, 73 nM. Also, the “No. of A3 Alleles Crossbound” value in assay [1] stood at 2.
Take `CC[C@H](C)[C@H](N)C(=O)N[C@H](C(=O)N[C@@H](Cc1c[nH]c2ccccc12)C(=O)N[C@@H](CC(C)C)C(=O)NCC(=O)N[C@@H](CC(C)C)C(=O)N[C@@H](CCCNC(=N)N)C(=O)N[C@@H](CO)C(=O)N[C@@H](CC(C)C)C(=O)N[C@@H](CCCNC(=N)N)C(=O)O)C(C)C` [Her2/neu.450.V2]: the IC50 was determined as 234 nM against HLA-A*0301, 11 nM at HLA-A*3101, 193 nM against HLA-A*3301 and 7.3 nM against HLA-A*6801. For the same molecule, the “No. of A3 Alleles Crossbound” value in assay [1] was 4.
`CC[C@H](C)[C@H](N)C(=O)N[C@H](C(=O)N[C@@H](Cc1c[nH]c2ccccc12)C(=O)N[C@@H](CC(C)C)C(=O)NCC(=O)N[C@@H](CC(C)C)C(=O)N[C@@H](CCCNC(=N)N)C(=O)N[C@@H](CO)C(=O)N[C@@H](CC(C)C)C(=O)N[C@@H](CCCCN)C(=O)O)C(C)C` [Her2/neu.450.V2K10]: the IC50 against HLA-A*0301 is 3.9 nM; at HLA-A*1101 it was 128 nM; against HLA-A*3101, 273 nM; on HLA-A*3301 it was 2070 nM; against HLA-A*6801, 12 nM. The “No. of A3 Alleles Crossbound” value in assay [1] was 4.
As for `CC[C@H](NC(=O)CNC(=O)CNC(=O)[C@H](C)NC(=O)[C@H](CC)NC(=O)[C@@H](NC(=O)[C@@H](N)[C@@H](C)O)C(C)C)C(=O)N[C@@H](C)C(=O)N[C@@H](CCCNC(=N)N)C(=O)O` [Her2/neu.218.B3B7] (H-TV[Abu]AGG[Abu]AR-OH), the IC50 was 314 nM against HLA-A*0301; 111 nM against HLA-A*1101; 247 nM against HLA-A*3101; 242 nM on HLA-A*3301; 8 nM at HLA-A*6801. Further, the “No. of A3 Alleles Crossbound” value in assay [1] amounted to 5.
